pIC50: −log10 of the molar value.
Test system: LG0703-F948-PDC complex spheroid viability
Test: Anticancer human tumor LG0703-F948-PDC patient-derived lung adenocarcinoma cell line growth inhibition [RAS]
Conditions: for pIC50: curve of first compound; for viability, T/C: stronger effect = lower value; active = viability on the fitted dose curve at most 10% of control; inactive = the rest
From the text: RAS pathway inhibitors in Combinations in Complex Spheroids
A high-throughput screen of multi-cell type tumor spheroids was designed to identify active combinations of RAS pathway inhibitors and targeted small molecules. Complex spheroids include a stromal component modeled by human endothelial cells (HUVEC) and fibroblasts modeled by human mesenchymal stem cells (MSCs). The concentration ranges selected for each drug and investigational agent were based upon clinically achievable concentrations if the clinical Cmax of the agent was known.
Compounds. The drugs and investigational agents: abemaciclib (NSC768073), cobimetinib (NSC768068), divarasib (GDC6063, NSC841802), docetaxel (NSC628503), GDC-1971 (RLY-1971, NSC841576), gemcitabine (NSC613327), inavolisib (NSC800729), ipatasertib (NSC767898), KB-0742 (NSC834161), MRTX-1133 (NSC836407), osimertinib (NSC779217), RMC-4630 (NSC839698), RMC-6236 (NSC851965), RMC-6291 (NSC852671), Ro-3306 (NSC812927), sapanisertib (NSC764658), SN-38 (NSC673596), staurosporine (NSC755774), SY5609 (NSC837396), and tovorafenib (DAY101, NSC766906), were obtained from the National Cancer Institute (NCI) Developmental Therapeutics Program Chemical Repository. The FDA-approved anticancer drug set is available from the NCI Developmental Therapeutics Program. […] The stock solutions were prepared in dimethyl sulfoxide (DMSO, Sigma-Aldrich, St. Louis, MO, cat. D2650) at 800-fold the tested concentration and stored at -70 degrees C prior to their use. All drugs and investigational agents were tested over a range starting from a high concentration at or near the clinical Cmax and decreasing in half-log increments. If the clinical Cmax for an agent had not been determined, the highest concentration tested was 10 microM.
Cell Culture. All cells were maintained in an incubator at 37 degrees C and 5% CO2 with 95% humidity. The PDC lines were cultured according to standard operating procedures established by the NCI PDMR. All PDCs were thawed and cultured in Matrigel-coated flasks prepared with a working solution of 1X Ham's F-12 nutrient mix, without supplementation (Invitrogen, Waltham, MA, cat. 11765054), 100 U/mL penicillin-streptomycin (Invitrogen, cat. 15140122), and 2.5% Matrigel (Corning Inc., Corning, NY, cat. 354248) for the first three passages. The 362531-283-R-J2-PDC and 782815-120-R-J1-PDC lines were cultured in 6C/Colon 1B media, which includes advanced DMEM/F-12 (Thermo Fisher Scientific, cat. 12634028), 10 mM HEPES (Thermo Fisher Scientific, cat. 15630080), 1X GlutaMAX supplement (Thermo Fisher Scientific, cat. 35050061), 0.1 mg/mL primocin (InvivoGen, San Diego, CA, cat. ant-pm-2), 10% defined fetal bovine serum, heat inactivated (HyClone Laboratories Inc., Logan, UT, cat. SH30070.03HI), 50% L-WRN conditioned media (ATCC, cat. CRL-3276), 1.25 mM N-Acetyl-L-cysteine (Sigma-Aldrich, cat. A9165), 10 mM nicotinamide (Sigma-Aldrich, cat. N0636), 1X B-27 supplement (Thermo Fisher Scientific, cat. 17504044), 1X N-2 supplement (Thermo Fisher Scientific, cat. 17502048), 50 ng/mL human EGF (Thermo Fisher Scientific, cat. PHG0311), and 10 microM Y-27632 dihydrochloride (Tocris Bioscience, cat. 1254). The K12877-001-R-J1-PDC line was cultured in 6I media, which includes all 6C/Colon 1B media plus 10 ng/mL human FGF-10 (PeproTech, cat. 100-26), 1 ng/mL human FGF-2 (PeproTech, cat. 100-18B), 1 µM prostaglandin E2 (Tocris Bioscience, cat. 2296), […] hydrocortisone (Sigma-Aldrich, cat. H4001), and […] bovine insulin (Sigma-Aldrich, cat. I6634). The K86415-001-R-J1-PDC line was cultured in 6D media, which includes all 6C/Colon 1B media components minus the L-WRN conditioned media. The 485176-168-R4-J1-PDC was cultured in PANC media, which includes all 6C/Colon 1B media plus 100 ng/mL human FGF-10 (PeproTech, cat. 100-26), 500 nM SB-431542 (Selleckchem, cat. S1067), and 10 nM gastrin (Tocris Bioscience, cat. 3006). […]

[1] = second compound 0.0316 µM, first compound 0.0316 µM
[2] = second compound 0.0316 µM, first compound 0.1 µM
[3] = second compound 0.0316 µM, first compound 0.316 µM
[4] = second compound 0.0316 µM, first compound 1 µM
[5] = second compound 0.1 µM, first compound 0.0316 µM
[6] = second compound 0.1 µM, first compound 0.1 µM
[7] = second compound 0.1 µM, first compound 0.316 µM
[8] = second compound 0.1 µM, first compound 1 µM
[9] = second compound 0.316 µM, first compound 0.0316 µM
[10] = second compound 0.316 µM, first compound 0.1 µM
[11] = second compound 0.316 µM, first compound 0.316 µM
[12] = second compound 0.316 µM, first compound 1 µM
[13] = second compound 1 µM, first compound 0.0316 µM
[14] = second compound 1 µM, first compound 0.1 µM
[15] = second compound 1 µM, first compound 0.316 µM
[16] = second compound 1 µM, first compound 1 µM
[17] = second compound 3.16 µM, first compound 0.0316 µM
[18] = second compound 3.16 µM, first compound 0.1 µM
[19] = second compound 3.16 µM, first compound 0.316 µM
[20] = second compound 3.16 µM, first compound 1 µM
[21] = second compound 10 µM, first compound 0.0316 µM
[22] = second compound 10 µM, first compound 0.1 µM
[23] = second compound 10 µM, first compound 0.316 µM
[24] = second compound 10 µM, first compound 1 µM
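For viability, T/C in this document: 100% = DMSO vehicle wells.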

CCC(CC)c1cc(NC2CCC(N)C2)n2nccc2n1 (centres undefined) + C#Cc1c(F)ccc2cc(O)cc(-c3ncc4c(N5CC6CCC(C5)N6)nc(OCC56CCCN5CC(F)C6)nc4c3F)c12
5.94: pIC50 (second compound 0.0316 µM)
inactive: viability, T/C [1] 95% | viability, T/C [2] 80.1% | viability, T/C [3] 83.9% | viability, T/C [4] 56.7% | viability, T/C [5] 97.5% | viability, T/C [6] 80.8% | viability, T/C [7] 87.7% | viability, T/C [8] 55.1% | viability, T/C [9] 81.2% | viability, T/C [10] 68% | viability, T/C [11] 73.4% | viability, T/C [12] 66.5% | viability, T/C [13] 73.4% | viability, T/C [14] 69.8% | viability, T/C [15] 65.1% | viability, T/C [16] 49.3% | viability, T/C [17] 64% | viability, T/C [18] 55.3% | viability, T/C [19] 56.7% | viability, T/C [20] 33.8% | viability, T/C [21] 45% | viability, T/C [22] 56% | viability, T/C [23] 31.7% | viability, T/C [24] 19%
5.87: pIC50 (second compound 0.316 µM)
6.34: pIC50 (second compound 3.16 µM)
active: viability, T/C (second compound 0.0316 µM, first compound 3.16 µM) 2.63% | viability, T/C (second compound 0.0316 µM, first compound 10 µM) 0.05% | viability, T/C (second compound 0.1 µM, first compound 3.16 µM) 2.53% | viability, T/C (second compound 0.1 µM, first compound 10 µM) 0.22% | viability, T/C (second compound 0.316 µM, first compound 3.16 µM) 3.15% | viability, T/C (second compound 0.316 µM, first compound 10 µM) 0.1% | viability, T/C (second compound 1 µM, first compound 3.16 µM) 2.65% | viability, T/C (second compound 1 µM, first compound 10 µM) 0.06% | viability, T/C (second compound 3.16 µM, first compound 3.16 µM) 1.79% | viability, T/C (second compound 3.16 µM, first compound 10 µM) 0.56% | viability, T/C (second compound 10 µM, first compound 3.16 µM) 0.77% | viability, T/C (second compound 10 µM, first compound 10 µM) 0.53%
6.03: pIC50 (second compound 1 µM)
5.95: pIC50 (second compound 0.1 µM)
7.45: pIC50 (second compound 10 µM)

CCN1CCN(Cc2ccc(Nc3ncc(F)c(-c4cc(F)c5nc(C)n(C(C)C)c5c4)n3)nc2)CC1 + C#Cc1c(F)ccc2cc(O)cc(-c3ncc4c(N5CC6CCC(C5)N6)nc(OCC56CCCN5CC(F)C6)nc4c3F)c12
inactive: viability, T/C (second compound 0.0316 µM, first compound 0.00316 µM) 114% | viability, T/C (second compound 0.0316 µM, first compound 0.01 µM) 84% | viability, T/C [1] 78.3% | viability, T/C [2] 92.2% | viability, T/C [3] 82.7% | viability, T/C [4] 79.8% | viability, T/C (second compound 0.1 µM, first compound 0.00316 µM) 119% | viability, T/C (second compound 0.1 µM, first compound 0.01 µM) 90.3% | viability, T/C [5] 92.1% | viability, T/C [6] 90.5% | viability, T/C [7] 74% | viability, T/C [8] 69.7% | viability, T/C (second compound 0.316 µM, first compound 0.00316 µM) 103% | viability, T/C (second compound 0.316 µM, first compound 0.01 µM) 99.5% | viability, T/C [9] 84.5% | viability, T/C [10] 81.1% | viability, T/C [11] 75.5% | viability, T/C [12] 70% | viability, T/C (second compound 1 µM, first compound 0.00316 µM) 84% | viability, T/C (second compound 1 µM, first compound 0.01 µM) 77.7% | viability, T/C [13] 68.5% | viability, T/C [14] 68.7% | viability, T/C [15] 77.6% | viability, T/C [16] 64.1% | viability, T/C (second compound 3.16 µM, first compound 0.00316 µM) 73.2% | viability, T/C (second compound 3.16 µM, first compound 0.01 µM) 71.9% | viability, T/C [17] 56.8% | viability, T/C [18] 57% | viability, T/C [19] 71.3% | viability, T/C [20] 45% | viability, T/C (second compound 10 µM, first compound 0.00316 µM) 62.5% | viability, T/C (second compound 10 µM, first compound 0.01 µM) 44.3% | viability, T/C [21] 47.7% | viability, T/C [22] 47.5% | viability, T/C [23] 49.5% | viability, T/C [24] 36.9%
< 6.00: pIC50 (second compound 0.0316 µM) | pIC50 (second compound 0.1 µM) | pIC50 (second compound 0.316 µM) | pIC50 (second compound 1 µM) | pIC50 (second compound 3.16 µM)
8.14: pIC50 (second compound 10 µM)

Reference: PubChem BioAssay AID2060890 (Molecular Pharmacology Branch, DTP, NCI, 2025)
